For one data set, the system named is DENV-2 16681 strain. As to the kind of experiment: DENV-2 antiviral assay (eGFP-labeled virus in Vero cells). In kind it is cell-based, Dengue virus. As to conditions: DENV-2 16681 eGFP, MOI 0.5, 3 days. The procedure:
The antiviral activity of all the compounds of the invention was tested against the DENV-2 16681 strain which was labeled with enhanced green fluorescent protein (eGPF). The culture medium consists of minimal essential medium supplemented with 2% of heat-inactivated fetal calf serum, 0.04% gentamycin (50 mg/mL) and 2 mM of L-glutamine. Vero cells, obtained from ECACC, were suspended in culture medium and 25 μL was added to 384-well plates (2500 cells/well), which already contain the antiviral compounds. Typically, these plates contain a 5-fold serial dilution of 9 dilution steps of the test compound at 200 times the final concentration in 100% DMSO (200 nL). […] Finally, each plate contains wells which are assigned as virus controls (containing cells and virus in the absence of compound), cell controls (containing cells in the absence of virus and compound) and medium controls (containing medium in the absence of cells, virus and compounds). To the wells assigned as medium control, 25 μL of culture medium was added instead of Vero cells. Once the cells are added to the plates, the plates were incubated for 30 minutes at room temperature to allow the cells to distribute evenly within the wells. Next, the plates were incubated in a fully humidified incubator (37° C., 5% CO2) until the next day. Then, DENV-2 strain 16681, labeled with eGFP, was added at a multiplicity of infection (MOI) of 0.5.
Therefore, 15 μL of virus suspension was added to all the wells containing test compound and to the wells assigned as virus control. In parallel, 15 μL of culture medium was added to the medium and cell controls. Next, the plates were incubated for 3 days in a fully humidified incubator (37° C., 5% CO2). At the day of the read out, the eGFP fluorescence was measured using an automated fluorescence microscope at 488 nm (blue laser). Using an in-house LIMS system, inhibition dose response curves for each compound were calculated and the half maximal effective concentration (EC50) was determined. Therefore, the percent inhibition (I) for every test concentration is calculated using the following formula: I=100*(ST−SCC)/(SVC−SCC); ST, SCC and SVC are the amount of eGFP signal in the test compound, cell control and virus control wells, respectively. The EC50 represents the concentration of a compound at which the virus replication is inhibited with 50%, as measured by a 50% reduction of the eGFP fluorescent intensity compared to the virus control. The EC50 is calculated using linear interpolation (Table 1).

The next data set in a line: in vitro. As to conditions: African green monkey.
[1] abbreviates: Dengue virus, DENV2, Vero, 72 h.

Our source for the EC50 and CC50 values is patent US11053196B2, “Substituted indoline derivatives as dengue viral replication inhibitors” (JANSSEN PHARMACEUTICALS, INC., priority 2017, dated 2021).

In turn, `COc1cc(NC(C(=O)N2CCc3ccc(S(F)(F)(F)(F)F)cc32)c2ccc(Cl)cc2)cc(OCCCC(=O)O)c1` (racemic) [Compound 1, 4-(3-((1-(4-chlorophenyl)-2-oxo-2-(6-(pentafluoro-λ^6-sulfanyl)indolin-1-yl)ethyl)amino)-5-methoxyphenoxy)butanoic acid] gave an EC50 in the data set on DENV-2 16681 strain (setting [1]) of 0.00064 µM. This compound gave a CC50 in the data set “in vitro” of 13 µM.

Take `COc1cc(NC(C(=O)N2CCc3c(C)cc(C(F)(F)F)cc32)c2ccc(Cl)cc2)cc(OCCCC(=O)O)c1` (racemic) [Compound 2, 4-(3-((1-(4-chlorophenyl)-2-(4-methyl-6-(trifluoromethyl)indolin-1-yl)-2-oxoethyl)amino)-5-methoxyphenoxy)butanoic acid]: the concentration giving a half-maximal response (EC50) in the data set on DENV-2 16681 strain (setting [1]) was 0.00038 µM. Also, the CC50 in “in vitro” was 12 µM.

`COc1cc(NC(C(=O)N2CCc3cc(F)c(C(F)(F)F)cc32)c2ccc(Cl)cc2)cc(OCCCC(=O)O)c1` (racemic) [Compound 3, 4-(3-((1-(4-chlorophenyl)-2-(5-fluoro-6-(trifluoromethyl)indolin-1-yl)-2-oxoethyl)amino)-5-methoxyphenoxy)butanoic acid] displayed an EC50 in the data set on DENV-2 16681 strain (setting [1]) of 0.00056 µM. In “in vitro”, this compound had a CC50 of 13 µM.

In the data set on DENV-2 16681 strain (setting [1]), `COc1cc(NC(C(=O)N2CCc3c(C)cc(OC(F)(F)F)cc32)c2ccc(Cl)cc2)cc(OCCCC(=O)O)c1` (racemic) [Compound 4, 4-(3-((1-(4-chlorophenyl)-2-(4-methyl-6-(trifluoromethoxy)indolin-1-yl)-2-oxoethyl)amino)-5-methoxyphenoxy)butanoic acid] displayed a concentration giving a half-maximal response (EC50) of 0.00011 µM. Besides, in “in vitro”, the CC50 came to 12 µM.

In the data set with DENV-2 16681 strain (setting [1]), `COc1cc(NC(C(=O)N2CCc3cc(F)c(OC(F)(F)F)cc32)c2ccc(Cl)cc2)cc(OCCCC(=O)O)c1` (racemic) [Compound 5, 4-(3-((1-(4-chlorophenyl)-2-(5-fluoro-6-(trifluoromethoxy)indolin-1-yl)-2-oxoethyl)amino)-5-methoxyphenoxy)butanoic acid] showed an EC50 of 0.00011 µM. For the same compound, the CC50 in “in vitro” was 10 µM.

Consider `COc1cc(NC(C(=O)N2CCc3ccc(OC(F)(F)F)cc32)c2ccc(F)cc2OC)cc(OCCCC(=O)O)c1` (racemic) [Compound 6, 4-(3-((1-(4-fluoro-2-methoxyphenyl)-2-oxo-2-(6-(trifluoromethoxy)indolin-1-yl)ethyl)amino)-5-methoxyphenoxy)butanoic acid], for which, in the data set on DENV-2 16681 strain (setting [1]), a half-maximal effect (EC50) was put at 0.00063 µM. This compound also displayed a CC50 in “in vitro” of 12 µM.

Take `COc1cc(NC(C(=O)N2CCc3ccc(OC(F)(F)F)cc32)c2ccc(Cl)cc2OCCO)cc(OCCCC(=O)O)c1` (racemic) [Compound 8, 4-(3-((1-(4-chloro-2-(2-hydroxyethoxy)phenyl)-2-oxo-2-(6-(trifluoromethoxy)indolin-1-yl)ethyl)amino)-5-methoxyphenoxy)butanoic acid]: the 50% effective concentration (EC50) in the data set on DENV-2 16681 strain (setting [1]) was 0.00015 µM. In addition, in “in vitro”, the CC50 stood at 13 µM.

Consider `COc1cc(NC(C(=O)N2CCc3nc(OC)c(C(F)(F)F)cc32)c2ccc(Cl)cc2)cc(OCCCC(=O)O)c1` (racemic) [Compound 9, 4-(3-((1-(4-chlorophenyl)-2-(5-methoxy-6-(trifluoromethyl)-2,3-dihydro-1H-pyrrolo[3,2-b]pyridin-1-yl)-2-oxoethyl)amino)-5-methoxyphenoxy)butanoic acid], for which the concentration giving a half-maximal response (EC50) with DENV-2 16681 strain (setting [1]) came out at 0.00099 µM. The compound also came in with a CC50 in the data set “in vitro” of 12 µM.

`COc1cc(NC(C(=O)N2CCc3sc(C(F)(F)F)cc32)c2ccc(Cl)cc2)cc(OCCCC(=O)O)c1` (racemic) [Compound 10, 4-(3-((1-(4-chlorophenyl)-2-oxo-2-(2-(trifluoromethyl)-5,6-dihydro-4H-thieno[3,2-b]pyrrol-4-yl)ethyl)amino)-5-methoxyphenoxy)butanoic acid]: the 50% effective concentration (EC50) with DENV-2 16681 strain (setting [1]) came to 0.00052 µM. In the data set “in vitro”, this compound yielded a CC50 of 19 µM.

In the data set on DENV-2 16681 strain (setting [1]), `COc1cc(NC(C(=O)N2CCc3ccc(SC(F)(F)F)cc32)c2ccc(Cl)cc2)cc(OCCCC(=O)O)c1` (racemic) [Compound 11, 4-(3-((1-(4-chlorophenyl)-2-oxo-2-(6-((trifluoromethyl)thio)indolin-1-yl)ethyl)amino)-5-methoxyphenoxy)butanoic acid] had a concentration giving a half-maximal response (EC50) of 0.00028 µM. The CC50 in the data set “in vitro” was found to be 13 µM.

In the data set with DENV-2 16681 strain, `COc1cc(NC(C(=O)N2CCc3ccc(S(F)(F)(F)(F)F)cc32)c2ccc(Cl)cc2)cc(OCCCC(=O)O)c1` (single isomer, unassigned) [Compound 1A, 4-(3-((1-(4-chlorophenyl)-2-oxo-2-(6-(pentafluoro-λ^6-sulfanyl)indolin-1-yl)ethyl)amino)-5-methoxyphenoxy)butanoic acid] registered an EC50 of 0.0013 µM. For the same compound, in the data set “in vitro”, the CC50 was 12 µM.

`COc1cc(NC(C(=O)N2CCc3c(C)cc(C(F)(F)F)cc32)c2ccc(Cl)cc2)cc(OCCCC(=O)O)c1` (single isomer, unassigned) [Compound 2A, 4-(3-((1-(4-chlorophenyl)-2-(4-methyl-6-(trifluoromethyl)indolin-1-yl)-2-oxoethyl)amino)-5-methoxyphenoxy)butanoic acid] gave a half-maximal effective concentration (EC50) in the data set with DENV-2 16681 strain of 0.015 µM. In the data set “in vitro”, the CC50 was found to be 12 µM.

Regarding `COc1cc(NC(C(=O)N2CCc3cc(F)c(OC(F)(F)F)cc32)c2ccc(Cl)cc2)cc(OCCCC(=O)O)c1` (single isomer, unassigned) [Compound 5A, 4-(3-((1-(4-chlorophenyl)-2-(5-fluoro-6-(trifluoromethoxy)indolin-1-yl)-2-oxoethyl)amino)-5-methoxyphenoxy)butanoic acid], a half-maximal response in the data set on DENV-2 16681 strain (EC50) required 0.0023 µM. The compound also gave a CC50 in “in vitro” of 10 µM.

The compound `COc1cc(NC(C(=O)N2CCc3ccc(OC(F)(F)F)cc32)c2ccc(F)cc2OC)cc(OCCCC(=O)O)c1` (single isomer, unassigned) [Compound 6A, 4-(3-((1-(4-fluoro-2-methoxyphenyl)-2-oxo-2-(6-(trifluoromethoxy)indolin-1-yl)ethyl)amino)-5-methoxyphenoxy)butanoic acid] displayed an EC50 in the data set on DENV-2 16681 strain of 0.25 µM. The same compound registered a CC50 in the data set “in vitro” of 11 µM.

What is called EC50 is the concentration at which the effect is half-maximal.
